Key:
Assay type in all cases: cell-based
[1] = target: T1, endogenous wildtype AR in VCaP cells (Homo sapiens, UniProt P10275); test: AR protein degradation with CHX in VCaP cells; settings: CHX 100 nM, A89 50 μM
T1 construct: endogenous in cells; host or cells: VCaP
T1 sequence (P10275 1-920): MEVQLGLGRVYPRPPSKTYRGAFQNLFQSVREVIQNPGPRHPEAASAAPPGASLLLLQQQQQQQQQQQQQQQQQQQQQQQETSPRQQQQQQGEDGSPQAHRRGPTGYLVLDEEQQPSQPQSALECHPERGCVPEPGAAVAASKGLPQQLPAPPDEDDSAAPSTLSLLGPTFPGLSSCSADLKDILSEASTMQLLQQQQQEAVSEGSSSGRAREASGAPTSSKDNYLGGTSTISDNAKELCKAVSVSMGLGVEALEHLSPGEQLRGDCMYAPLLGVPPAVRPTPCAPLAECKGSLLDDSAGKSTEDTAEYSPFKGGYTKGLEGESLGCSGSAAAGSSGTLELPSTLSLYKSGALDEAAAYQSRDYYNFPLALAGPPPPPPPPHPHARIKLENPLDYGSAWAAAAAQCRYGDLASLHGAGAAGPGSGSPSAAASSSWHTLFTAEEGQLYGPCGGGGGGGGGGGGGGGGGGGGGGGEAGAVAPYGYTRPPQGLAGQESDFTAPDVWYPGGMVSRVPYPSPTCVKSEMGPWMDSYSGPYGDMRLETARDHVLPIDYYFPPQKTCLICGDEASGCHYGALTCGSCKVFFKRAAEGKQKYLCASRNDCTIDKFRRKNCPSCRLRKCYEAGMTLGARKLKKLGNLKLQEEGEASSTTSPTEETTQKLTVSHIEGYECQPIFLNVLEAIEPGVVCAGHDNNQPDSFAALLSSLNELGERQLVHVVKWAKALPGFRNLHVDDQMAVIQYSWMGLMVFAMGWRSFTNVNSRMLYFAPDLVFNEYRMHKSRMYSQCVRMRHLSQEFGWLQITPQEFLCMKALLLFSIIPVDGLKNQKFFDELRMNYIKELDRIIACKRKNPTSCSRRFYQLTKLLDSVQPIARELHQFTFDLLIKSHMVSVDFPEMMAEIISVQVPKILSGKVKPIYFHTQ
Procedure: As LNCaP and C4-2 cells express the T877A mutant AR, we next examined PC3-AR cells expressing wildtype AR. As observed in C4-2 cells, A89 caused a decrease in AR protein levels (FIG. 10d). To further validate that this was due to increased AR protein degradation, we pretreated these cells with A89 for 2 hours and then blocked new protein synthesis with cycloheximide (CHX). […] We finally examined VCaP cells.

[2] = target: T2, AR in VCaP cells (Homo sapiens, UniProt P10275); test: Nuclear AR, total AR protein and PSA expression in VCaP cells in steroid depleted medium
T2 construct: endogenous in cells; host or cells: VCaP
T2 sequence (P10275 1-920): T1 sequence (P10275 1-920)
From the text: VCaP cells, derived from a CRPC vertebral metastasis, express substantial levels of AR and AR regulated genes such as PSA even when cultured in steroid depleted medium. […] In additional studies focused on chemotype A compounds, we used immunofluorescence to assess AR nuclear localization. […] In contrast, and consistent with the biochemical fractionation studies noted above, basal nuclear AR was decreased by A61.
We used the NE-PER Nuclear and Cytoplasmic Extraction Reagents (Pierce 78833).

[3] = target: T3, AR WT (Homo sapiens, UniProt P10275); test: AR expression levels in transiently transfected COS7 cells, AR WT; settings: 24 hours
T3 construct: The AR WT construct expresses full-length human AR under cmv promoter control; expressed in transfected cells; host or cells: COS7
T3 sequence (P10275 1-920): T1 sequence (P10275 1-920)

[4] = target: T4, AR ΔH12 (Homo sapiens, UniProt P10275); test: AR expression levels in transiently transfected COS7 cells, AR ΔH12; settings: 24 hours
T4 construct: expressed in transfected cells; host or cells: COS7
T4 sequence (P10275 1-886 limits assumed): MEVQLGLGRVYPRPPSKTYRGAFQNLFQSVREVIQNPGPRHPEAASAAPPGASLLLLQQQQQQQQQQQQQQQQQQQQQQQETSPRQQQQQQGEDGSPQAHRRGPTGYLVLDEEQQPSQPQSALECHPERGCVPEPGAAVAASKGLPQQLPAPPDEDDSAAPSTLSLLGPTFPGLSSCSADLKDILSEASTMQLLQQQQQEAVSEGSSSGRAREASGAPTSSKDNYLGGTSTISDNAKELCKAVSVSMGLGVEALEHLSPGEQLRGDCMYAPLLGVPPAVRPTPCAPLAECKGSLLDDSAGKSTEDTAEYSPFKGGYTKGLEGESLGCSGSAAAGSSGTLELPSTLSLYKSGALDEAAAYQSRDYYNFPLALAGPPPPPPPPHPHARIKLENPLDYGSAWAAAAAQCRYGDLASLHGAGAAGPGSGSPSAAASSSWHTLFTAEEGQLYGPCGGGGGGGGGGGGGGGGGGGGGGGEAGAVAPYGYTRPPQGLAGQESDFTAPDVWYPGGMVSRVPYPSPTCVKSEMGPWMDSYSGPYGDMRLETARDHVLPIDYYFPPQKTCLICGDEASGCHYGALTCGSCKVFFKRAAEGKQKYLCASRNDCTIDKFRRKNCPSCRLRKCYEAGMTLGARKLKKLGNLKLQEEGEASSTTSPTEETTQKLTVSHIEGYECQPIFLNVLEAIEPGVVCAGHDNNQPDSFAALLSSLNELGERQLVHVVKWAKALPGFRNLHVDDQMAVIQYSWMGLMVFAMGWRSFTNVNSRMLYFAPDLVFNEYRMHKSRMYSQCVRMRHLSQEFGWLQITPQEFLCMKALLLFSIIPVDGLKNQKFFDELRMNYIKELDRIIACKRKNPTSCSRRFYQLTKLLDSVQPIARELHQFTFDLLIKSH

[5] = target: T5, AR ΔH12 (M886X variant AR) (Homo sapiens, UniProt P10275); test: Mifepristone-stimulated VP16-NCoRc recruitment reporter assay in COS7 cells, AR ΔH12
T5 construct: expressed in transfected cells; host or cells: COS7
T5 sequence (P10275 1-886 limits assumed): T4 sequence (P10275 1-886 limits assumed)
From the text: The ERα antagonist fulvestrant (Faslodex) represents a novel class of estrogen receptor downregulators that appear to mediate ERα degradation by specifically repositioning helix 12. To assess the role of helix 12 in chemotype A-mediated AR degradation, we first determined if helix 12 is required for A89 binding. As this helix is required for AR agonist activity, we could not directly measure competitive antagonist activity on a truncated AR lacking helix 12.

SMILES: CCOc1cc(F)c(S(=O)(=O)NCc2ccc3c(c2)OCO3)cc1F [Compound A89, N-(1,3-benzodioxol-5-ylmethyl)-4-ethoxy-2,5-difluorobenzenesulfonamide]
- degradation of endogenous wildtype AR [1]: increased degradation
- basal level PSA expression ([2]; 10 μM, steroid depleted medium): further decreasing basal level PSA expression
- nuclear AR ([2]; 10 μM, steroid depleted medium): significantly decreased nuclear AR
- DHT stimulated PSA expression ([2]; not shown): blocking DHT stimulated PSA expression
- AR WT protein levels [3]: decreased in a dose dependent manner
- AR ΔH12 protein levels [4]: not clearly decreased
- mifepristone-mediated VP16-NCoRc recruitment ([5]; A89 50 μM with Mif 100 nM): suppressed
- VP16-NCoRc recruitment (interaction with AR) ([5]; Mif 100 nM, A89 50 μM, 24 hours): did not stimulate

From patent US20140088187A1, “ANDROGEN RECEPTOR INHIBITORS AND METHODS OF USE THEREOF” (BETH ISRAEL DEACONESS MEDICAL CENTER, priority 2010, published 2014)
